Numbered stars: 1 amine (or outer) side, 2 acyl side, 3 side chain; on linkers, the order of the positions; unused ones are H or OH. Bridge positions count the residues as written; N and C are the ends. Square brackets hold non-standard residues; d marks the D form. Peptide text beside a SMILES is read from it. * marks the point of attachment. ξ: configuration not given here. Phe(3-CF3) = N[C@@H](Cc1cccc(C(F)(F)F)c1)C(=O)O; Ala(morpholin-4-yl) = N[C@@H](CN1CCOCC1)C(=O)O; Phe(3-COOH) = N[C@@H](Cc1cccc(C(=O)O)c1)C(=O)O; Phe(4-COOH) = N[C@@H](Cc1ccc(C(=O)O)cc1)C(=O)O; Bip = N[C@@H](Cc1ccc(-c2ccccc2)cc1)C(=O)O; Phe(3-Me) = Cc1cccc(C[C@H](N)C(=O)O)c1; γGlu = O=C(O)[C@H](CCC(=O)[*:2])N[*:1]; NH(CH2)12COOH = O=C(O)CCCCCCCCCCCCN*; Val(3-OH) = CC(C)(O)[C@H](N)C(=O)O; hArg = N=C(N)NCCCC[C@H](N)C(=O)O; Cha = N[C@@H](CC1CCCCC1)C(=O)O; Thr(3ξ) = CC(O)[C@H](N)C(=O)O; 12Ado = NCCCCCCCCCCCC(=O)O; Carboxymethyl = O=C(O)C*; Orn = NCCC[C@H](N)C(=O)O; Aun = NCCCCCCCCCCC(=O)O; Dab = NCC[C@H](N)C(=O)O; Dap = NC[C@H](N)C(=O)O; AEEA = NCCOCCOCC(=O)O

The assay deals with T1, PD-1/PD-L1 interaction (PE-labeled human PD-L1-Ig binding to Jurkat cell line over-expressing human PD-1) (Homo sapiens, UniProt Q15116).
T1 construct: expressed in transfected cells; host or cells: Jurkat
T1 sequence (Q15116 25-288): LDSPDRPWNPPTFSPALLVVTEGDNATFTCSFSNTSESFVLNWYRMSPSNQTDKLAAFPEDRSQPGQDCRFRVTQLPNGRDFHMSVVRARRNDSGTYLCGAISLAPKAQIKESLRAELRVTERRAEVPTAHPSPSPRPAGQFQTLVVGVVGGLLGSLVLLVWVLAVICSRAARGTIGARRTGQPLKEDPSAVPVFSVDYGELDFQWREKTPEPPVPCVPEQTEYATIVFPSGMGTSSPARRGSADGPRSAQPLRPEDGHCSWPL
The experiment in a line: Jurkat-PD-1 Cell Binding High-Content Screening Assay (CBA). It counts as cell-based. To be noted: Jurkat cell line over-expressing human PD-1; PE-labeled PD-L1-Ig 20 nM final; read-out: Jurkat hPD1-PDL1 IC50. The procedure, abridged: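 Jurkat cells stably over-expressing human PD-1 were seeded in DMEM with 10% fetal calf serum and pre-incubated with compound for 2 h at 37° C. PE-labeled human PD-L1-Ig was then added at 20 nM final for 1 hour, after which cells were fixed with paraformaldehyde, Hoechst-stained and imaged by high-content microscopy.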
Consider `Cc1cccc(C[C@@H]2NC(=O)[C@H](CC(=O)O)NC(=O)[C@H](Cc3ccc(OCC(=O)O)cc3)NC(=O)[C@H](CN)NC(=O)CSC[C@@H](C(=O)N[C@@H](CCN)C(=O)NCCOCCOCC(=O)NCCCCCCCCCCC(=O)O)NC(=O)[C@H](CCCN)NC(=O)[C@H](C(C)C)NC(=O)[C@H](CC3CCCCC3)NC(=O)[C@H](CCN)NC(=O)[C@@H](CC(C)C)NC(=O)[C@H](CCCN)NC(=O)[C@H](Cc3ccc(O)cc3)NC(=O)[C@H](Cc3ccc(-c4ccccc4)cc3)NC(=O)[C@H](Cc3cccc(C(=O)O)c3)NC2=O)c1` [Compound 2064] ({CH2CO}-[Dap]Y(Carboxymethyl)D[Phe(3-Me)][Phe(3-COOH)][Bip]Y[Orn][dL][Dab][Cha]V[Orn]C[Dab][AEEA][Aun]-OH; thioether N-14), for which the IC50 was 15.4 nM.

Turning to `Cc1cccc(C[C@@H]2NC(=O)[C@H](CC(=O)O)NC(=O)[C@H](Cc3ccc(OCC(=O)O)cc3)NC(=O)[C@H](CCCCNC(=N)N)NC(=O)CSC[C@@H](C(=O)N[C@@H](CCN)C(=O)N[C@@H](CO)C(=O)NCCCCCCCCCCCC(=O)O)NC(=O)[C@H](CO)NC(=O)[C@H](C(C)C)NC(=O)[C@H](CC3CCCCC3)NC(=O)[C@H](CCN)NC(=O)[C@@H](CC(C)C)NC(=O)[C@H](CCCN)NC(=O)[C@H](CCCNC(=N)N)NC(=O)[C@H](Cc3ccc(-c4ccccc4)cc3)NC(=O)[C@H](C(C)C)NC2=O)c1` [Compound 3571] ({CH2CO}-[hArg]Y(Carboxymethyl)D[Phe(3-Me)]V[Bip]R[Orn][dL][Dab][Cha]VSC[Dab]S[12Ado]-OH; thioether N-14), the IC50 was found to be 16.9 nM.

Regarding `Cc1cccc(C[C@@H]2NC(=O)[C@H](CC(=O)O)NC(=O)[C@H](Cc3ccc(OCC(=O)O)cc3)NC(=O)[C@H](CN3CCOCC3)NC(=O)CSC[C@@H](C(=O)N[C@@H](CCN)C(=O)NCCOCCOCC(=O)NCCOCCOCC(=O)NCCCCCCCCCCCCC(=O)O)NC(=O)[C@H](CO)NC(=O)[C@H](C(C)(C)O)NC(=O)[C@H](CC3CCCCC3)NC(=O)[C@H](CCN)NC(=O)[C@@H](CC(C)C)NC(=O)[C@H](CCCN)NC(=O)[C@H](Cc3ccc(C(=O)O)cc3)NC(=O)[C@H](Cc3ccc(-c4ccccc4)cc3)NC(=O)[C@H](Cc3ccc(C(=O)O)cc3)NC2=O)c1` [Compound 2897] ({CH2CO}-[Ala(morpholin-4-yl)]Y(Carboxymethyl)D[Phe(3-Me)][Phe(4-COOH)][Bip][Phe(4-COOH)][Orn][dL][Dab][Cha][Val(3-OH)]SC[Dab][AEEA][AEEA]-{NH(CH2)12COOH}; thioether N-14), the half-inhibitory concentration (IC50) worked out at 1.6 nM.

Regarding `CC(C)C[C@H]1NC(=O)[C@H](CCCN)NC(=O)[C@H](Cc2ccc(C(=O)O)cc2)NC(=O)[C@H](Cc2ccc(-c3ccccc3)cc2)NC(=O)[C@H](Cc2ccc(C(=O)O)cc2)NC(=O)[C@H](Cc2cccc(C(F)(F)F)c2)NC(=O)[C@H](CC(=O)O)NC(=O)[C@H](Cc2ccc(OCC(=O)O)cc2)NC(=O)[C@H](C)NC(=O)CSC[C@@H](C(=O)N[C@@H](CCN)C(=O)NCCCCCCCCCCCCC(=O)O)NC(=O)[C@H](Cc2c[nH]cn2)NC(=O)[C@H](C(C)(C)O)NC(=O)[C@H](CC2CCCCC2)NC(=O)[C@H](CCN)NC1=O` [Compound 2923] ({CH2CO}-AY(Carboxymethyl)D[Phe(3-CF3)][Phe(4-COOH)][Bip][Phe(4-COOH)][Orn][dL][Dab][Cha][Val(3-OH)]HC[Dab]-{NH(CH2)12COOH}; thioether N-14), the concentration for half-maximal inhibition (IC50) worked out at 22.5 nM.

Consider `CC(C)C[C@H]1NC(=O)[C@H](CCCN)NC(=O)[C@H](C(C)C)NC(=O)[C@H](Cc2ccc(-c3ccccc3)cc2)NC(=O)[C@H](C(C)C)NC(=O)[C@H](Cc2c[nH]c3ccccc23)NC(=O)[C@H](CC(=O)O)NC(=O)[C@H](Cc2ccc(OCC(=O)O)cc2)NC(=O)[C@H](C(C)O)NC(=O)CSC[C@@H](C(=O)N[C@@H](CCN)C(=O)NCCOCCOCC(=O)N[C@@H](CCC(=O)NCCCCCCCCCCC(=O)O)C(=O)O)NC(=O)[C@H](CCN)NC(=O)[C@H](C(C)O)NC(=O)[C@H](CC2CCCCC2)NC(=O)[C@H](CCN)NC1=O` (stereo partly drawn) [Compound 3678] ({CH2CO}-[Thr(3ξ)]Y(Carboxymethyl)DWV[Bip]V[Orn][dL][Dab][Cha][Thr(3ξ)][Dab]C[Dab][AEEA][γGlu][Aun]-OH; thioether N-14), for which the IC50 worked out at 9.2 nM.

As a reminder, the IC50 is the midpoint of a concentration-inhibition curve.

The values are drawn from patent US20260022142A1, “MACROCYCLIC IMMUNOMODULATORS” (Bristol-Myers Squibb Company, priority 2022, published 2026).
